This assay addresses T1, HIV-1 protease (Human immunodeficiency virus type 1 group M subtype B, UniProt P04585).
T1 construct: The protease (or proteinase), consisting of only 99 amino acids, is among the smallest enzymes known
Kind of assay: In vitro HIV protease inhibitory assay (HIV Protease FITC Assay). The format is biochemical. The conditions noted are these: for inhibition at 0.41 µM: HIV-1 Dose 0.410 uM; for inhibition at 0.41 µM / inhibition at 1.23 µM / inhibition at 3.7 µM / inhibition at 11 µM / inhibition at 33 µM / inhibition at 100 µM / inhibition at 0.123 µM / inhibition at 0.37 µM / inhibition at 1.1 µM / inhibition at 3.3 µM / inhibition at 10 µM / inhibition at 30 µM: read-out: HIV-1 Protease % Inhib; for inhibition at 1.23 µM: HIV-1 Dose 1.230 uM; for inhibition at 3.7 µM: HIV-1 Dose 3.700 uM; for inhibition at 11 µM: HIV-1 Dose 11.000 uM; for inhibition at 33 µM: HIV-1 Dose 33.000 uM; for inhibition at 100 µM: HIV-1 Dose 100.000 uM; for Ki: read-out: HIV-1 FITC Ki; for inhibition at 0.123 µM: HIV-1 Dose 0.123 uM; for inhibition at 0.37 µM: HIV-1 Dose 0.370 uM; for inhibition at 1.1 µM: HIV-1 Dose 1.100 uM; for inhibition at 3.3 µM: HIV-1 Dose 3.300 uM; for inhibition at 10 µM: HIV-1 Dose 10.000 uM; for inhibition at 30 µM: HIV-1 Dose 30.000 uM. The procedure: The HIV protease screening assay is based on a fluorescently labeled substrate which can be resolved from nonlabeled cleavage product using avidin-polystyrene particles, 0.7-0.9 µm. The substrate is biotinylated at the amino terminal arginine and fluorescently labeled with fluorescein isothiocynate (FITC) at the carboxyl terminal lysine. […] Substrate (20 µl of 0.2 µM), sample (10 µl of desired concentraion), and enzyme (10 µl of 0.1 µM) are added to a 96 well pandex plate. The assay is run in 0.1 M sodium acetate buffer at pH 5.5 in the presence of 1.0 M sodium chloride and 0.05% NP-40 and incubated in the dark for one hour at room temperature. Avidin coated polystyrene beads {40 µl of 0.1% (w/v)} are added and the incubation is continued in the dark for an additional half hour. The labeled cleavage product is separated from the unreacted substrate via filtration and is read on the Idexx Screen Machine. The data are analyzed by appropriate computer algorithms to ascertain percent inhibition values.

17 compounds from patent publication EP1203770A1 (priority 1992, dated 1994) can be followed below.

The Ki is the dissociation constant of the complex between target and ligand, obtained from inhibition or displacement. Regarding `O=c1oc(CCc2ccccn2)cc(O)c1C(c1ccccc1)C1CC1` (stereo not shown) [Example 49, 3-(Cyclopropyl-phenyl-methyl)-4-hydroxy-6-(2-pyridin-2-yl-ethyl)-pyran-2-one], the inhibition at 0.41 µM is < 10%, the inhibition at 1.23 µM came to 24.6%, the inhibition at 3.7 µM came out at 52.3% and the inhibition at 11 µM worked out at 80%. Besides, the inhibition at 33 µM was 93.7%, the inhibition at 100 µM worked out at 98.3% and the Ki is 425 nM.
As to `Cc1nc(CCc2cc(O)c(C(c3ccccc3)C3CC3)c(=O)o2)cs1` (stereo not shown) [Example 50, 3-(Cyclopropyl-phenyl-methyl)-4-hydroxy-6-(2-(2-methyl-thiazol-4-yl)-ethyl)-pyran-2-one], the inhibition at 0.41 µM was < 10%, the inhibition at 1.23 µM was 22.1%, the inhibition at 3.7 µM came to 55.5% and the inhibition at 11 µM is 80.5%. In addition, the inhibition at 33 µM worked out at 96%, the inhibition at 100 µM was 106% and the Ki amounted to 353 nM.
In the case of `O=c1oc(CCc2ccc3ccccc3n2)cc(O)c1C(c1ccccc1)C1CC1` (stereo not shown) [Example 51, 3-(Cyclopropyl-phenyl-methyl)-4-hydroxy-6-(2-quinolin-2-yl-ethyl)-pyran-2-one], the inhibition at 0.41 µM was < 10%, the inhibition at 1.23 µM was < 10%, the inhibition at 3.7 µM was found to be 23.4% and the inhibition at 11 µM was 50.7%. Further, the inhibition at 33 µM is 70% and the inhibition at 100 µM is 83.7%.
As for `CCC(Cc1ccc(Cl)s1)c1cc(O)c(C(c2ccccc2)C2CC2)c(=O)o1` (stereo not shown) [Example 52, 6-(1-(5-Chloro-thiophen-2-ylmethyl)-propyl)-3-(cyclopropyl-phenyl-methyl)-4-hydroxy-pyran-2-one], the inhibition at 0.41 µM is 66.6%, the inhibition at 1.23 µM was determined as 86.2%, the inhibition at 3.7 µM worked out at 106% and the inhibition at 11 µM stood at 112%. The inhibition at 33 µM stood at 116%, the inhibition at 100 µM was 113% and the inhibition constant Ki was found to be 43 nM.
For the compound `O=c1oc(CCCCl)cc(O)c1C(c1ccccc1)C1CC1` (stereo not shown) [Example 53, 6-(3-Chloro-propyl)3-(cyclopropyl-phenyl-methyl)-4-hydroxy-pyran-2-one], the inhibition at 0.41 µM is 19.4%, the inhibition at 1.23 µM turned out to be 47.5%, the inhibition at 3.7 µM was 86% and the inhibition at 11 µM came out at 102%. In addition, the inhibition at 33 µM was determined as 117%, the inhibition at 100 µM worked out at 120% and the inhibitory constant (Ki) turned out to be 220 nM.
For the compound `CCC(Cc1c(C)noc1C)c1cc(O)c(C(c2ccccc2)C2CC2)c(=O)o1` (stereo not shown) [Example 54, 3-(Cyclopropyl-phenyl-methyl)-6(1-(3,5-dimethyl-isoxazol-4-ylmethyl)-propyl)-4-hydroxy-pyran-2-one], the inhibition at 0.41 µM stood at 85%, the inhibition at 1.23 µM is 95.8%, the inhibition at 3.7 µM stood at 109% and the inhibition at 11 µM worked out at 113%. In addition, the inhibition at 33 µM was 117%, the inhibition at 100 µM was 100% and the Ki came to 72 nM.
On to `CCC(Cc1csc(-c2ccc(Cl)cc2)n1)c1cc(O)c(C(c2ccccc2)C2CC2)c(=O)o1` (stereo not shown) [Example 55, 6-(1-(2-(4-Chloro-phenyl)-thiazol-4-ylmethyl)-propyl)-3-(cyclopropyl-phenyl-methyl)-4-hydroxy-pyran-2-one], for which the inhibition at 0.41 µM is < 10%, the inhibition at 1.23 µM amounted to 24.1%, the inhibition at 3.7 µM came to 59.6% and the inhibition at 11 µM turned out to be 92.1%. Also, the inhibition at 33 µM turned out to be 89.6%, the inhibition at 100 µM worked out at 102% and the Ki was determined as 578 nM.
For the compound `CCC(CC1CCCO1)c1cc(O)c(C(c2ccccc2)C2CC2)c(=O)o1` (stereo not shown) [Example 56, 3-(Cyclopropyl-phenyl-methyl)-4-hydroxy-6-(1-(tetrahydro-furan-2-ylmethyl)-propyl)-pyran-2-one], the inhibition at 0.41 µM was 92.6%, the inhibition at 1.23 µM came to 97.7%, the inhibition at 3.7 µM came out at 106% and the inhibition at 11 µM is 117%. Moreover, the inhibition at 33 µM is 119%, the inhibition at 100 µM was 109% and the Ki came out at 37 nM.
In the case of `CCC(Cc1cccs1)c1cc(O)c(C(c2ccccc2)C2CC2)c(=O)o1` (stereo not shown) [Example 57, 3-(Cyclopropyi-phenyl-methyl)-4-hydroxy-6-(1-thiophen-2-ylmethyl-propyl)-pyran-2-one], the inhibition at 0.41 µM amounted to 76.7%, the inhibition at 1.23 µM was 89.4%, the inhibition at 3.7 µM was determined as 103% and the inhibition at 11 µM came out at 108%. Besides, the inhibition at 33 µM stood at 114%, the inhibition at 100 µM turned out to be 116% and the Ki turned out to be 63 nM.
With `CCC(CC1CCOCC1)c1cc(O)c(C(c2ccccc2)C2CC2)c(=O)o1` (stereo not shown) [Example 58], the inhibition at 0.41 µM was found to be 74.5%, the inhibition at 1.23 µM is 91.1%, the inhibition at 3.7 µM turned out to be 107% and the inhibition at 11 µM amounted to 108%. Moreover, the inhibition at 33 µM was 115%, the inhibition at 100 µM amounted to 110% and the Ki was found to be 48 nM.
Take `CCC(Cc1ccco1)c1cc(O)c(C(c2ccccc2)C2CC2)c(=O)o1` (stereo not shown) [Example 59, 3-(Cyclopropyl-phenyl-methyl)-6-(1-furan-2-ylmethyl-propyl)4-hydroxy-pyran-2-one]: the inhibition at 0.41 µM turned out to be 64.2%, the inhibition at 1.23 µM turned out to be 81.2%, the inhibition at 3.7 µM is 104% and the inhibition at 11 µM stood at 102%. For the same compound, the inhibition at 33 µM was 101%, the inhibition at 100 µM stood at 105% and the inhibitory constant (Ki) came to 58 nM.
As for `CCC(CC1OCCO1)c1cc(O)c(C(c2ccccc2)C2CC2)c(=O)o1` (stereo not shown) [Example 60, 3-(Cyclopropyl-phenyl-methyl)-6-(1-(1,3)dioxolan-2-ylmethyl-propyl)-4-hydroxy-pyran-2-one], the inhibition at 0.41 µM worked out at 63.2%, the inhibition at 1.23 µM is 86.7%, the inhibition at 3.7 µM worked out at 106% and the inhibition at 11 µM came out at 113%. Also, the inhibition at 33 µM stood at 111%, the inhibition at 100 µM is 123% and the Ki was found to be 46 nM.
Take `CCC(CC1CCCOC1)c1cc(O)c(C(c2ccccc2)C2CC2)c(=O)o1` (stereo not shown) [Example 61, 3-(Cyclopropyl-phenyl-methyl)-4-hydroxy-6-(1-(tetrahydro-pyran-3-ylmethyl)-propyl)-pyran-2-one]: the inhibition at 0.41 µM was found to be 100%, the inhibition at 1.23 µM turned out to be 101%, the inhibition at 3.7 µM was 108% and the inhibition at 11 µM amounted to 111%. Besides, the inhibition at 33 µM came to 111%, the inhibition at 100 µM was 103% and the Ki was 13 nM.
In the case of `CCC(CC1CCCCO1)c1cc(O)c(C(c2ccccc2)C2CC2)c(=O)o1` (stereo not shown) [Example 62, 3-(Cyclopropyl-phenyl-methyl)-4-hydroxy-6-(1-(tetrahydro-pyran-2-ylmethyl)-propyl)-pyran-2-one], the inhibition at 0.41 µM worked out at 85.7%, the inhibition at 1.23 µM stood at 95.8%, the inhibition at 3.7 µM came out at 108% and the inhibition at 11 µM amounted to 116%. In addition, the inhibition at 33 µM stood at 113%, the inhibition at 100 µM came out at 123% and the Ki stood at 74 nM.
For the compound `CCC(Cc1ccccn1)c1cc(O)c(C(c2ccccc2)C2CC2)c(=O)o1` (stereo not shown) [Example 63, 3-(Cyclopropyl-phenyl-methyl)-4-hydroxy-6-(1-pyridin-2-ylmethyl-propyl)-pyran-2-one], the inhibition at 0.41 µM is 68.5%, the inhibition at 1.23 µM came to 95.8%, the inhibition at 3.7 µM amounted to 101% and the inhibition at 11 µM was 110%. Moreover, the inhibition at 33 µM stood at 112%, the inhibition at 100 µM came out at 117% and the Ki is 79 nM.
Consider `CCC(CCCCl)c1cc(O)c(C(c2ccccc2)C2CC2)c(=O)o1` (stereo not shown) [Example 64, 6-(4-Chloro-1-ethyl-butyl)-3-(cyclopropyl-phenyl-methyl)-4-hydroxy-pyran-2-one], for which the inhibition at 0.123 µM came to 13.7%, the inhibition at 0.37 µM was determined as 53.9%, the inhibition at 1.1 µM stood at 87.7% and the inhibition at 3.3 µM turned out to be 103%. In addition, the inhibition at 10 µM was 109%, the inhibition at 30 µM was determined as 119% and the Ki turned out to be 44 nM.
On to `CCC(CCC1OCCCO1)c1cc(O)c(C(c2ccccc2)C2CC2)c(=O)o1` (stereo not shown) [Example 65, 3-(Cyclopropyl-phenyl-methyl)-6-(3-(1,3)dioxan-2-yl-1-ethyl-propyl)-4-hydroxy-pyran-2-one], for which the inhibition at 0.123 µM was < 10%, the inhibition at 0.37 µM worked out at 28%, the inhibition at 1.1 µM amounted to 71.2% and the inhibition at 3.3 µM was 93.2%. Moreover, the inhibition at 10 µM stood at 107%, the inhibition at 30 µM worked out at 122% and the Ki is 141 nM.
